Experimental data: patent US20240239775A1, “FXR REGULATOR, PREPARATION METHOD THEREFOR, PHARMACEUTICAL COMPOSITION THEREOF AND USE THEREOF” (QINGDAO RUIJI MEDICAL TECHNOLOGY CO., LTD., priority 2021, published 2024)
pIC50: −log10 of the molar value.

How the values were obtained:
FXR = molecular target: T1, FXR (Homo sapiens, UniProt Q96RI1); test: FXR antagonist screening by TR-FRET (LanthaScreen TR-FRET FXR co-activation assay kit); format: biochemical; conditions: TR-FRET with CDCA, geometric means of at least two independent runs
T1 construct: 5 μL of 20 nM FXR-LBD Complete Coregulator buffer G; purchased ThermoFisher PV4833
T1 sequence (Q96RI1 262-486 limits assumed): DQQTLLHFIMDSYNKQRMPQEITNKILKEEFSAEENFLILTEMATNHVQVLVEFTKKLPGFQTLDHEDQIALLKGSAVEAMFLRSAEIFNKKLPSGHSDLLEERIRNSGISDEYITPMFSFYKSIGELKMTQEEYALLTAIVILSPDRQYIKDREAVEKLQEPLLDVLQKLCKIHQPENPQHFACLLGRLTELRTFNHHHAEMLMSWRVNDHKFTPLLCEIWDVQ
Procedure, shortened: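 FXR-LBD (20 nM working solution) mixed with compound, CDCA (200 μM working solution) as agonist, Fluorescein-SRC2-2 and Tb-anti-GST antibody in Coregulator buffer G; 10 h at room temperature. Coactivator recruitment read by TR-FRET, triplicate wells.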

[1] = Table 1.1, FXR antagonistic activity
[2] = Table 1.2, FXR antagonistic activity

Q: With Cc1c(C(=O)O)oc2ccc(S(=O)(=O)N(CCc3ccccc3)Cc3ccccc3F)cc12 [Example F27-S14, 3-methyl-5-(N-(2-fluorobenzyl)-N-phenethylsulfamoyl)benzofuran-2-carboxylic acid] as the compound, how does the pIC50 (FXR; [1]) read?
A: 5.00 to 7.00

Q: And the melting point?
A: > 380 °C (dec.)

Q: With Cc1c(C(=O)O)oc2ccc(S(=O)(=O)N(CCc3ccccc3)Cc3ccccc3Cl)cc12 [Example F27-S15, 3-methyl-5-(N-(2-chlorobenzyl)-N-phenethylsulfamoyl)benzofuran-2-carboxylic acid] as the compound, how does the pIC50 (FXR; [1]) read?
A: 4.30 to 5.00

Q: And the melting point?
A: 156 to 157 °C

Q: With Cc1c(C(=O)O)oc2ccc(S(=O)(=O)N(CCc3ccccc3)Cc3ccccc3Br)cc12 [Example F27-S16, 3-methyl-5-(N-(2-bromobenzyl)-N-phenethylsulfamoyl)benzofuran-2-carboxylic acid] as the compound, how does the pIC50 (FXR; [1]) read?
A: 4.30 to 5.00

Q: What about the melting point of the same compound?
A: 170 to 171 °C

Q: What does the source list for Cc1ccccc1CN(CCc1ccccc1)S(=O)(=O)c1ccc2oc(C(=O)O)c(C)c2c1 [Example F27-S17, 3-methyl-5-(N-(2-methylbenzyl)-N-phenethylsulfamoyl)benzofuran-2-carboxylic acid]?
A: pIC50 (FXR; [1]): 4.30 to 5.00; melting point: 199 to 200 °C

Q: With Cc1c(C(=O)O)oc2ccc(S(=O)(=O)N(CCc3ccccc3)Cc3ccccc3C(F)(F)F)cc12 [Example F27-S18, 3-methyl-5-(N-(2-trifluoromethylbenzyl)-N-phenethylsulfamoyl)benzofuran-2-carboxylic acid] as the compound, how does the pIC50 (FXR; [1]) read?
A: 4.30 to 5.00

Q: And the melting point?
A: 138 to 139 °C

Q: With CCOC(=O)c1[nH]c2ccc(S(=O)(=O)N(CCc3ccccc3)c3ccccc3N3CCN(C(=O)c4sccc4Br)CC3)cc2c1Cl [Example M10-161, Ethyl 5-(N-(2-(4-(3-bromothiophene-2-carbonyl)piperazin-1-yl)phenyl)-N-phenethylsulfamoyl)-3-chloro-1H-indole-2-carboxylate] as the compound, how does the pIC50 (FXR; [2]) read?
A: 4.00 to 4.30

Q: With CCOC(=O)c1cc2cc(S(=O)(=O)N(CCc3ccccc3)c3ccccc3N3CCN(C(=O)c4sccc4Br)CC3)ccc2o1 [Example M10-162, Ethyl 5-(N-(2-(4-(3-bromothiophene-2-formyl)piperazin-1-yl)phenyl)-N-phenethylsulfamoyl)benzofuran-2-carboxylate] as the compound, how does the pIC50 (FXR; [2]) read?
A: 4.00 to 4.30

Q: With CCOC(=O)c1oc2cc(S(=O)(=O)N(CCc3ccccc3)c3ccccc3N3CCN(C(=O)c4sccc4Br)CC3)ccc2c1C [Example M10-163, Ethyl 6-(N-(2-(4-(3-bromothiophene-2-formyl)piperazin-1-yl)phenyl)-N-phenethylsulfamoyl)-3-methylbenzofuran-2-carboxylate] as the compound, how does the pIC50 (FXR; [2]) read?
A: 4.00 to 4.30

Q: With CCOC(=O)c1cc2ccc(S(=O)(=O)N(CCc3ccccc3)c3ccccc3N3CCN(C(=O)c4sccc4Br)CC3)cc2o1 [Example M10-164, Ethyl 6-(N-(2-(4-(3-bromothiophene-2-formyl)piperazin-1-yl)phenyl)-N-phenethylsulfamoyl)benzofuran-2-carboxylate] as the compound, how does the pIC50 (FXR; [2]) read?
A: 4.00 to 4.30

Q: With CCOC(=O)c1sc2ccc(S(=O)(=O)N(CCc3ccc(Cl)cc3)c3ccccc3N3CCN(C(=O)c4sccc4Br)CC3)cc2c1C [Example M10-165, ethyl 5-(N-(2-(4-(3-bromothiophene-2-carbonyl)piperazin-1-yl)phenyl)-N-(4-chlorophenylethyl)sulfamoyl)-3-methylbenzothiophene-2-carboxylate] as the compound, how does the pIC50 (FXR; [2]) read?
A: 4.00 to 4.30

Q: With CCOC(=O)c1sc2ccc(S(=O)(=O)N(CCc3ccc(C)cc3)c3ccccc3N3CCN(C(=O)c4sccc4Br)CC3)cc2c1C [Example M10-166, Ethyl 5-(N-(2-(4-(3-bromothiophene-2-carbonyl)piperazin-1-yl)phenyl)-N-(4-methylphenylethyl)sulfamoyl)-3-methylbenzothiophene-2-carboxylate] as the compound, how does the pIC50 (FXR; [2]) read?
A: 4.00 to 4.30

Q: With CCOC(=O)c1sc2ccc(S(=O)(=O)N(CCc3ccc(C(=O)OC)cc3)c3ccccc3N3CCN(C(=O)c4sccc4Br)CC3)cc2c1C [Example M10-167, ethyl 5-(N-(2-(4-(3-bromothiophene-2-carbonyl)piperazin-1-yl)phenyl)-N-(4-(methoxycarbonyl)phenethyl)sulfamoyl)-3-methylbenzothiophene-2-carboxylate] as the compound, how does the pIC50 (FXR; [2]) read?
A: 4.00 to 4.30

Q: With CCOC(=O)c1sc2ccc(S(=O)(=O)N(CCc3ccc(C#N)cc3)c3ccccc3N3CCN(C(=O)c4sccc4Br)CC3)cc2c1C [Example M10-168] as the compound, how does the pIC50 (FXR; [2]) read?
A: 4.00 to 4.30

Q: With CCOC(=O)c1sc2ccc(S(=O)(=O)N(CCc3ccc(C(F)(F)F)cc3)c3ccccc3N3CCN(C(=O)c4sccc4Br)CC3)cc2c1C [Example M10-169, Ethyl 5-(N-(2-(4-(3-bromothiophene-2-carbonyl)piperazin-1-yl)phenyl)-N-(4-(trifluoromethyl)phenethyl)sulfamoyl)-3-methylbenzothiophene-2-carboxylate] as the compound, how does the pIC50 (FXR; [2]) read?
A: 4.00 to 4.30

Q: With CCOC(=O)c1sc2ccc(S(=O)(=O)N(CCc3cccc(OC)c3)c3ccccc3N3CCN(C(=O)c4sccc4Br)CC3)cc2c1C [Example M10-170, Ethyl 5-(N-(2-(4-(3-bromothiophene-2-carbonyl)piperazin-1-yl)phenyl)-N-(3-methoxyphenethyl)sulfamoyl)-3-methylbenzothiophene-2-carboxylate] as the compound, how does the pIC50 (FXR; [2]) read?
A: 4.00 to 4.30

Q: With CCOC(=O)c1sc2ccc(S(=O)(=O)N(CCc3cccc(Cl)c3)c3ccccc3N3CCN(C(=O)c4sccc4Br)CC3)cc2c1C [Example M10-171, Ethyl 5-(N-(2-(4-(3-bromothiophene-2-carbonyl)piperazin-1-yl)phenyl)-N-(3-chlorophenylethyl)sulfamoyl)-3-methylbenzothiophene-2-carboxylate] as the compound, how does the pIC50 (FXR; [2]) read?
A: 4.00 to 4.30

Q: With CCOC(=O)c1sc2ccc(S(=O)(=O)N(CCc3ccccc3Cl)c3ccccc3N3CCN(C(=O)c4sccc4Br)CC3)cc2c1C [Example M10-172, Ethyl 5-(N-(2-(4-(3-bromothiophene-2-carbonyl)piperazin-1-yl)phenyl)-N-(2-chlorophenylethyl)sulfamoyl)-3-methylbenzothiophene-2-carboxylate] as the compound, how does the pIC50 (FXR; [2]) read?
A: 4.00 to 4.30

Q: With CCOC(=O)c1sc2ccc(S(=O)(=O)N(CCc3ccccc3OC)c3ccccc3N3CCN(C(=O)c4sccc4Br)CC3)cc2c1C [Example M10-173, Ethyl 5-(N-(2-(4-(3-bromothiophene-2-carbonyl)piperazin-1-yl)phenyl)-N-(2-methoxyphenethyl)sulfamoyl)-3-methylbenzothiophene-2-carboxylate] as the compound, how does the pIC50 (FXR; [2]) read?
A: 4.00 to 4.30

Q: With CCOC(=O)c1sc2ccc(S(=O)(=O)N(CCc3ccccc3[N+](=O)[O-])c3ccccc3N3CCN(C(=O)c4sccc4Br)CC3)cc2c1C [Example M10-174] as the compound, how does the pIC50 (FXR; [2]) read?
A: 4.00 to 4.30

Q: With CCOC(=O)c1sc2ccc(S(=O)(=O)N(CCCc3ccccc3)c3ccccc3N3CCN(C(=O)c4sccc4Br)CC3)cc2c1C [Example M10-175, ethyl 5-(N-(2-(4-(3-bromothiophene-2-carbonyl)piperazin-1-yl)phenyl)-N-(3-phenylpropyl)sulfamoyl)-3-methylbenzothiophene-2-carboxylate] as the compound, how does the pIC50 (FXR; [2]) read?
A: 4.00 to 4.30

Q: With CCOC(=O)c1sc2ccc(S(=O)(=O)Nc3ccccc3N3CCN(C(=O)c4sccc4Br)CC3)cc2c1C [Example M10-176, Ethyl 5-(N-(2-(4-(3-bromothiophene-2-carbonyl)piperazin-1-yl)phenyl)sulfamoyl)-3-toluothiophene-2-carboxylate] as the compound, how does the pIC50 (FXR; [2]) read?
A: 4.00 to 4.30

Q: With CCOC(=O)c1sc2ccc(S(=O)(=O)N(CCc3ccc(OC)cc3)c3ccccc3N3CCN(C(=O)c4sccc4Br)CC3)cc2c1C [Example M10-177, Ethyl 5-(N-(2-(4-(3-bromothiophene-2-formyl)piperazin-1-yl)phenyl)-N-(4-methoxyphenethyl)sulfamoyl)3-methylbenzothiophene-2-carboxylate] as the compound, how does the pIC50 (FXR; [2]) read?
A: 4.00 to 4.30

Q: With CCOC(=O)c1c(C)c2cc(S(=O)(=O)N(CCc3ccccc3)c3ccccc3N3CCN(C(=O)c4sccc4Br)CC3)ccc2n1C [Example M10-179, Ethyl 5-(N-(2-(4-(3-bromothiophene-2-carbonyl)piperazin-1-yl)phenyl)-N-phenethylsulfamoyl)-1,3-dimethyl-1H-indole-2-carboxylate] as the compound, how does the pIC50 (FXR; [2]) read?
A: 4.00 to 4.30

Q: With CCOC(=O)c1sc2ccc(S(=O)(=O)N(CCC3CCCCC3)c3ccccc3N3CCN(C(=O)c4sccc4Br)CC3)cc2c1C [Example M10-180, Ethyl 5-(N-(2-(4-(3-bromothiophene-2-carbonyl)piperazin-1-yl)phenyl)-N-(2-cyclohexylethyl)sulfamoyl)-3-methylbenzothiophene-2-carboxylate] as the compound, how does the pIC50 (FXR; [2]) read?
A: 4.00 to 4.30

Q: With CCOC(=O)c1sc2ccc(S(=O)(=O)N(Cc3ccccc3)c3ccccc3N3CCN(C(=O)c4sccc4Br)CC3)cc2c1C [Example M10-181, Ethyl 5-(N-benzyl-N-(2-(4-(3-bromothiophene-2-carbonyl)piperazin-1-yl)phenyl)sulfamoyl)-3-methylbenzothiophene-2-carboxylate] as the compound, how does the pIC50 (FXR; [2]) read?
A: 4.00 to 4.30

Q: With CCOC(=O)c1sc2ccc(S(=O)(=O)N(C)c3ccccc3N3CCN(C(=O)c4sccc4Br)CC3)cc2c1C [Example M10-182, Ethyl 5-(N-(2-(4-(3-bromothiophene-2-carbonyl)piperazin-1-yl)phenyl)-N-methylsulfamoyl)-3-methylbenzothiophene-2-carboxylate] as the compound, how does the pIC50 (FXR; [2]) read?
A: 4.00 to 4.30

Q: With CCOC(=O)c1sc2ccc(S(=O)(=O)N(CCc3cccs3)c3ccccc3N3CCN(C(=O)c4sccc4Br)CC3)cc2c1C [Example M10-183, Ethyl 5-(N-(2-(4-(3-bromothiophene-2-carbonyl)piperazin-1-yl)phenyl)-N-(2-(thiophen-2-yl)ethyl)sulfamoyl)-3-methylbenzothiophene-2-carboxylate] as the compound, how does the pIC50 (FXR; [2]) read?
A: 4.00 to 4.30
